This passage reports IC50 results from PubChem BioAssay AID602335 (The Scripps Research Institute Molecular Screening Center, 2012).

SMILES strings stand for the structures. Calls of active or inactive are those of the source. The rule behind the calls is not given here.

Test [1] addresses Monoacylglycerol lipase ABHD6 (Mus musculus) (UniProt Q8R2Y0). Briefly: in situ ABHD6 versus DAGLb inhibition – cell-based, gel-based competitive ABPP, fluorescence, selectivity assay for DAGLb inhibitor project, dose response (AID 602335).
In test [2] the target is Diacylglycerol lipase-beta (Mus musculus) (UniProt Q91WC9). Described as above. The settings on record: DAGLb.
Chain of Diacylglycerol lipase-beta (Mus musculus) (Q91WC9 whole entry, looked up): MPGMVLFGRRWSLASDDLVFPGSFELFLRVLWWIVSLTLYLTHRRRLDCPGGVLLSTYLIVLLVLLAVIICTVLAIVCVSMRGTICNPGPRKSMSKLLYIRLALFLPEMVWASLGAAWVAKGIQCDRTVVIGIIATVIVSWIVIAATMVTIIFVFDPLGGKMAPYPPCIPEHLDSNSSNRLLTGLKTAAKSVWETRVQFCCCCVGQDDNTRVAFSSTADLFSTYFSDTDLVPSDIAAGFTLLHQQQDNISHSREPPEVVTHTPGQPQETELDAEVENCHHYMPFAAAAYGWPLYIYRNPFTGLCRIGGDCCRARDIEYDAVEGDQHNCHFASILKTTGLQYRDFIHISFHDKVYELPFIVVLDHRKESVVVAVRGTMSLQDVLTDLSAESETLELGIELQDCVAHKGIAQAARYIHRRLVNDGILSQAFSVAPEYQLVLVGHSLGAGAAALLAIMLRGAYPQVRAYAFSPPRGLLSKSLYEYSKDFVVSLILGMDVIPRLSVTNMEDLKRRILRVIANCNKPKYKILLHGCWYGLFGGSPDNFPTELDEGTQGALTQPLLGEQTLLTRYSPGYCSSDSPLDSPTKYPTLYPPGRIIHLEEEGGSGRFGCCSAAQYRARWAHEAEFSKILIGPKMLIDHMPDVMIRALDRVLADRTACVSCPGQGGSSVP

Chain of Monoacylglycerol lipase ABHD6 (Mus musculus) (Q8R2Y0 whole entry, looked up): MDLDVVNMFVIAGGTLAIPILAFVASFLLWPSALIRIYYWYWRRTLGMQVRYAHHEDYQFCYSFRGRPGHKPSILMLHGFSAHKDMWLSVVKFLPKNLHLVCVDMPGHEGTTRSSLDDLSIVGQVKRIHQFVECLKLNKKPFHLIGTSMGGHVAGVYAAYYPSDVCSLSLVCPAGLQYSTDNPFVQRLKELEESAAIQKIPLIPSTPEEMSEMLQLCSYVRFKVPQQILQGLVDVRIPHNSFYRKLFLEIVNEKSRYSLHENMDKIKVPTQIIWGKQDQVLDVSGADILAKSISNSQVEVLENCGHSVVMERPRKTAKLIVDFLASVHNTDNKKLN

A word on the IC50: it is the concentration at which inhibition is half-maximal. In the case of `COc1ccc(-c2ccc(-c3cn(C(=O)N4CCCCC4c4ccccc4)nn3)cc2)cc1` (stereo unspecified), the IC50 was 0.0013 µM in test [1] and > 0.1 µM (inactive) in test [2]. Take `O=C(O)c1cccc(-c2ccc(-c3cn(C(=O)N4CCCCC4Cc4ccccc4)nn3)cc2)c1` (stereo unspecified): the IC50 in test [2] is > 0.1 µM (inactive). On to `O=C(N1CCCCC1c1ccccc1)n1cc(-c2ccc(-c3ccccc3)cc2)nn1` (stereo unspecified), for which the values for the IC50 in test [1] and in test [2] were 0.00017 µM and > 0.1 µM (inactive), respectively. For the compound `O=C(N1CCCCC1c1ccccc1)n1cc(-c2ccc(-c3cccc(CO)c3)cc2)nn1` (stereo unspecified), the IC50 in test [2] was > 0.1 µM (inactive).
